Assays:
[1] = tested on: stable HCV 1a RLuc replicon cells (genotype 1a H77 replicon); test: HCV genotype 1a RLuc replicon reporter assay; type: cell-based; settings: Hepatitis C virus; stable genotype 1a H77 RLuc replicon cells, 72 hours
Protocol: (§1) Evaluation of cell-based anti-HCV activity: Antiviral potency (EC50) was determined using a Renilla luciferase (RLuc)-based HCV replicon reporter assay. To perform the assay for genotype 1 and 2a JFH-1, stable HCV 1a RLuc replicon cells (harboring a dicistronic genotype 1a H77 replicon that encodes a RLuc reporter), stable HCV lb RLuc replicon cells (harboring a dicistronic genotype 1b Conl replicon that encodes a RLuc reporter), or stable HCV 2a JFH-1 Rluc replicon cells (harboring a dicistronic genotype 2a JFH-1 replicon that encodes a RLuc reporter; with L31 present in NS5A) were dispensed into 384-well plates for EC50 assays. To perform the assay for genotype 2a (with M31 present in NS5A) or 2b, NS5A chimeric genotype 2a JFH-1 replicons that encodes a RLuc-Neo reporter and either genotype 2a J6 strain NS5A gene or genotype 2b MD2b-1 strain NS5A gene (both with M31 present) respectively, were either transiently transfected (t) into Huh-Lunet cells or were established as stably replicating replicon cells (s) is provided. Either cells were dispensed into 384-well plates for EC50 assays. To perform the assay for genotype 3 and 4, NS5A chimeric genotype 1b Conl replicons that encodes a Pi-RLuc reporter and either genotype 3a S52 strain NS5A gene or genotype 4a ED43 strain NS5A gene respectively, were transiently transfected (t) into Huh-Lunet cells, which were subsequently dispensed into 384-well plates. Compounds were dissolved in DMSO at a concentration of 10 mM and diluted in DMSO either manually or using an automated pipeting instrument. Serially 3-fold diluted compounds were either manually mixed with cell culture media and added to the seeded cells or directly added to the cells using an automated instrument. DMSO was used as a negative (solvent; no inhibition) control, and the protease inhibitor ITMN-191 was included at a concentration >100×EC50 as a positive control. 72 hours later, cells were lysed and Renilla luciferase activity quantified as recommended by the manufacturer (Promega-Madison, Wis.). Non-linear regression was performed to calculate EC50 values.

[2] = tested on: stable HCV 2a JFH-1 Rluc replicon cells (L31 present in NS5A); test: HCV genotype 2a JFH-1 RLuc replicon reporter assay; type: cell-based; settings: Hepatitis C virus, 72 h, read-out: 2a JFH (nM)
Protocol: as §1

[3] = tested on: stable HCV 1b RLuc replicon cells (genotype 1b Con1 replicon); test: HCV genotype 1b RLuc replicon reporter assay; type: cell-based; settings: Hepatitis C virus; stable genotype 1b Con1 RLuc replicon cells, 72 hours
Protocol: as §1

[4] = tested on: NS5A chimeric genotype 2a JFH-1 replicon with genotype 2a J6 strain NS5A gene (M31); test: HCV genotype 2a J6 NS5A chimeric replicon assay, transient (t); type: cell-based; settings: Hepatitis C virus, 72 h, read-out: 2a J6 (t) (nM)
Protocol: as §1

[5] = tested on: NS5A chimeric genotype 1b Con1 replicon with genotype 3a S52 strain NS5A gene; test: HCV genotype 3a NS5A chimeric replicon assay; type: cell-based; settings: Hepatitis C virus, 72 h, read-out: 3a (nM)
Protocol: as §1

[6] = tested on: NS5A chimeric genotype 1b Con1 replicon with genotype 4a ED43 strain NS5A gene; test: HCV genotype 4a NS5A chimeric replicon assay; type: cell-based; settings: Hepatitis C virus, 72 h, read-out: 4a (s) (nM)
Protocol: as §1, with “[…],” for “were transiently transfected (t) into Huh-Lunet cells,”

[7] = tested on: NS5A chimeric genotype 2a JFH-1 replicon with genotype 2b MD2b-1 strain NS5A gene (M31); test: HCV genotype 2b NS5A chimeric replicon assay, stable (s); type: cell-based; settings: Hepatitis C virus, 72 h, read-out: 2b (s) (nM)
Protocol: as §1

[8] = tested on: Y93H in genotype 3a NS5A replicon; test: Resistance mutant replicon assay, genotype 3a NS5A Y93H; type: cell-based, HCV; settings: Hepatitis C virus, read-out: 3a Y93H (nM)
Protocol: as §1
(§2) To determine the antiviral potency (EC50) against resistance mutants, resistance mutations, including M28T, Q30R, Q30H, Q30E, L31M, Y93C, Y93H, and Y93N in genotype 1a NS5A, Y93H and L31V/Y93H in genotype 1b NS5A, and Y93H for in genotype 3a NS5A, were introduced individually into either 1a Pi-Rluc or 1b Pi-Rluc replicons by site directed mutagenesis. Replicon RNA of each resistant mutant was transiently transfected into Huh-7-derived cured-51 cells and antiviral potency was determined on these transfected cells as described above.

[9] = tested on: Y93H in genotype 1a NS5A replicon; test: Resistance mutant replicon assay, genotype 1a NS5A Y93H; type: cell-based, HCV; settings: Hepatitis C virus, read-out: 1a Y93H (nM)
Protocol: as §1, §2

[10] = tested on: Y93N in genotype 1a NS5A replicon; test: Resistance mutant replicon assay, genotype 1a NS5A Y93N; type: cell-based, HCV; settings: Hepatitis C virus, read-out: 1a Y93N (nM)
Protocol: as §1, §2

Question: Which EC50 [1] does the source give for COC(=O)N[C@H](C(=O)N1[C@@H](C)CC[C@H]1c1nc2ccc3cc4c(cc3c2[nH]1)OCc1cc(-c2cnc([C@@H]3CC[C@H](C)N3C(=O)[C@H](NC(=O)OC)[C@H]3C[C@@H](C)O[C@@H](C)C3)[nH]2)ccc1-4)C(C)C [Example AP, Methyl {(2S)-1-[(2S,5S)-2-(9-{2-[(2S,5S)-1-{(2R)-2-[(2R,6S)-2,6-dimethyltetrahydro-2H-pyran-4-yl]-2-[(methoxycarbonyl)amino]acetyl}-5-methylpyrrolidin-2-yl]-1H-imidazol-5-yl}-1,11-dihydroisochromeno[4′,3′:6,7]naphtho[1,2-d]imidazol-2-yl)-5-methylpyrrolidin-1-yl]-3-methyl-1-oxobutan-2-yl}carbamate] here?
Answer: Its EC50 is 1.52 nM.

Question: What about the EC50 [2] of the same molecule?
Answer: Its EC50 is 1.1 nM.

Question: And the EC50 [3]?
Answer: The EC50 was 0.038 nM.

Question: What about the EC50 [4] of the same molecule?
Answer: The EC50 was 4.44 nM.

Question: And the EC50 [5]?
Answer: The EC50 was 4.44 nM.

Question: And the EC50 [6]?
Answer: Its EC50 is 1.19 nM.

Question: And the EC50 [7]?
Answer: Its EC50 is 4.44 nM.

Question: What does the source list for COC(=O)N[C@H](C(=O)N1[C@@H](C)CC[C@H]1c1ncc(-c2ccc3c(c2)COc2cc4c(ccc5nc([C@@H]6CC[C@H](C)N6C(=O)[C@H](NC(=O)OC)C6C[C@@H](C)O[C@H](C)C6)[nH]c54)cc2-3)[nH]1)C(C)C (stereo partly drawn) [Example AR, Methyl {(2S)-1-[(2S,5S)-2-(5-{2-[(2S,5S)-1-{(2R)-2-[(2R,6R)-2,6-dimethyltetrahydro-2H-pyran-4-yl]-2-[(methoxycarbonyl)amino]acetyl}-5-methylpyrrolidin-2-yl]-1,11-dihydroisochromeno[4′,3′:6,7]naphtho[1,2-d]imidazol-9-yl}-1H-imidazol-2-yl)-5-methylpyrrolidin-1-yl]-3-methyl-1-oxobutan-2-yl}carbamate]?
Answer: EC50 [1]: 8.98 nM; EC50 [2]: 2.11 nM; EC50 [3]: 0.09 nM; EC50 [4]: 5.14 nM; EC50 [5]: 8.3 nM; EC50 [6]: 4.19 nM; EC50 [7]: 15.8 nM

Question: What does the source list for COC(=O)N[C@H](C(=O)N1[C@H](c2ncc(-c3ccc4c(c3)COc3cc5c(ccc6nc([C@@H]7C[C@H](C)[C@H](C)N7C(=O)[C@@H](NC(=O)OC)C7C[C@@H](C)O[C@H](C)C7)[nH]c65)cc3-4)[nH]2)C[C@H](C)[C@@H]1C)C1C[C@@H](C)O[C@H](C)C1 (stereo partly drawn) [Example AZ, Methyl {(1S)-1-[(2R,6R)-2,6-dimethyltetrahydro-2H-pyran-4-yl]-2-[(2S ,3S,5S)-5-(5-{2-[(2S,4S,5S)-1-{(2S)-2-[(2R,6R)-2,6-dimethyltetrahydro-2H-pyran-4-yl]-2-[(methoxycarbonyl)amino]acetyl}-4,5-dimethylpyrrolidin-2-yl]-1,11-dihydroisochromeno[4′,3′:6,7]naphtho[1,2-d]imidazol-9-yl}-1H-imidazol-2-yl)-2,3-dimethylpyrrolidin-1-yl]-2-oxoethyl}carbamate]?
Answer: EC50 [8]: 4.52 nM; EC50 [1]: 0.021 nM; EC50 [2]: 0.01 nM; EC50 [9]: 0.025 nM; EC50 [3]: 0.031 nM; EC50 [5]: 0.025 nM; EC50 [6]: 0.013 nM; EC50 [10]: 0.059 nM; EC50 [7]: 0.024 nM

Question: Which results are given for COC(=O)N[C@H](C(=O)N1[C@@H](c2nc3ccc4cc5c(cc4c3[nH]2)OCc2cc(-c3cnc([C@@H]4C[C@H](C)[C@H](C)N4C(=O)[C@@H](NC(=O)OC)C4C[C@@H](C)O[C@H](C)C4)[nH]3)ccc2-5)C[C@@H](C)[C@H]1C)C1C[C@@H](C)O[C@H](C)C1 (stereo partly drawn) [Example BA, Methyl {(1S)-1-[(2R,6R)-2,6-dimethyltetrahydro-2H-pyran-4-yl]-2-[(2R,3R,5R)-5-(9-{2-[(2S,4S,5S)-1-{(2S)-2-[(2R,6R)-2,6-dimethyltetrahydro-2H-pyran-4-yl]-2-[(methoxycarbonyl)amino]acetyl}-4,5-dimethylpyrrolidin-2-yl]-1H-imidazol-5-yl}-1,11-dihydroisochromeno[4′,3′:6,7]naphtho[1,2-d]imidazol-2-yl)-2,3-dimethylpyrrolidin-1-yl]-2-oxoethyl}carbamate]?
Answer: EC50 [8]: 40.6 nM; EC50 [1]: 0.169 nM; EC50 [2]: 0.086 nM; EC50 [9]: 0.359 nM; EC50 [3]: 0.061 nM; EC50 [5]: 0.231 nM; EC50 [6]: 0.108 nM; EC50 [10]: 0.496 nM; EC50 [7]: 0.202 nM

Question: Which EC50 [1] does the source give for COC(=O)N[C@H](C(=O)N1[C@@H](c2ncc(-c3ccc4c(c3)COc3cc5c(ccc6nc([C@@H]7C[C@H](C)[C@H](C)N7C(=O)[C@@H](NC(=O)OC)C7C[C@@H](C)O[C@H](C)C7)[nH]c65)cc3-4)[nH]2)C[C@@H](C)[C@H]1C)C1C[C@@H](C)O[C@H](C)C1 (stereo partly drawn) [Example BB, Methyl {(1S)-1-[(2R,6R)-2,6-dimethyltetrahydro-2H-pyran-4-yl]-2-[(2R,3R,5R)-5-(5-{2-[(2S,4S,5S)-1-{(2S)-2-[(2R,6R)-2,6-dimethyltetrahydro-2H-pyran-4-yl]-2-[(methoxycarbonyl)amino]acetyl}-4,5-dimethylpyrrolidin-2-yl]-1,11-dihydroisochromeno[4′,3′:6,7]naphtho[1,2-d]imidazol-9-yl}-1H-imidazol-2-yl)-2,3-dimethylpyrrolidin-1-yl]-2-oxoethyl}carbamate] here?
Answer: The EC50 was 3.85 nM.

Question: And the EC50 [2]?
Answer: The EC50 was 2.96 nM.

Question: And the EC50 [9]?
Answer: The EC50 was 20.2 nM.

Question: What about the EC50 [3] of the same molecule?
Answer: Its EC50 is 0.205 nM.

Question: And the EC50 [5]?
Answer: Its EC50 is 10.3 nM.

Question: What about the EC50 [6] of the same molecule?
Answer: Its EC50 is 2.54 nM.

Question: What about the EC50 [10] of the same molecule?
Answer: Its EC50 is 29.6 nM.

Question: And the EC50 [7]?
Answer: The EC50 was 10.6 nM.

From patent publication US20160362416A1, “ANTIVIRAL COMPOUNDS” (Gilead Sciences, Inc., priority 2012, published 2016)
